Data as given in patent US11591355B2 (Peloton Therapeutics, Inc., priority 2017, dated 2023).

How the values were obtained:
[1] = molecular target: T1, Human CD73 (Homo sapiens, UniProt P21589); assay: CD73 Enzyme Assay; format: biochemical; settings: 0.25 nM hCD73, 25 μM AMP, kinetic read at 360 nm; read-out: CD73 Enzyme Assay IC50
T1 construct: purchased R&D Systems; host or cells: CHO cells
T1 sequence (P21589 27-549): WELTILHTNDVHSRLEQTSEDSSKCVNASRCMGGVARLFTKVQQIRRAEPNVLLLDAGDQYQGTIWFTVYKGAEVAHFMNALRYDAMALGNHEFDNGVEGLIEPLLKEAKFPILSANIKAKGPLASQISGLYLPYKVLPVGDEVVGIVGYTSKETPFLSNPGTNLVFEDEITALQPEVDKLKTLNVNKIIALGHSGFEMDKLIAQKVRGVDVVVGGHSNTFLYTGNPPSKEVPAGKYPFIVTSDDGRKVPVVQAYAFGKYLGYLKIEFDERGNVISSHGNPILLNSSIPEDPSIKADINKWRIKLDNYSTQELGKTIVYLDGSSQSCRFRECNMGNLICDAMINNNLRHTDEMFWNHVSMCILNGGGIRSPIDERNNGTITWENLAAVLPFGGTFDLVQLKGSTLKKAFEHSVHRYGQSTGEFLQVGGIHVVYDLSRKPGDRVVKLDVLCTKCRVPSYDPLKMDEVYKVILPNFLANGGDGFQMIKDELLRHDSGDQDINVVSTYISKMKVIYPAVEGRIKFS

[2] = molecular target: T2, CD73 on U138 human neuroglioma cells (Homo sapiens, UniProt P21589); assay: CD73 Cell-Based Assay; settings: U138 cells, AMP substrate, 2 hours at 37° C., inorganic phosphate by malachite green
T2 construct: U138 cells were obtained from ATCC and cultured in DMEM with 10% FBS; host or cells: U138 human neuroglioma cells
T2 sequence (P21589 27-549): T1 sequence (P21589 27-549)
How it was run: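 Whole U138 cells washed free of phosphate were incubated with 200 μM AMP (mixture concentration before equal-volume addition) plus compound in HEPES-buffered saline, pH 7.4, for 2 h at 37 °C, 5% CO2. Adenosine-forming activity read as inorganic phosphate released into supernatant by malachite green.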

| IC50 [1] [µM] | IC50 [2] [µM] | SMILES |
| --- | --- | --- |
| 0.01 to 0.1 | 0.01 to 0.1 | COc1nc(NC2CCCC2)c2ccn([C@@H]3O[C@H](COCP(=O)(O)O)[C@@H](O)[C@H]3O)c2n1 [Compound 247, [(2R,3S,4R,5R)-5-[4-(cyclopentylamino)-2-methoxy-pyrrolo[2,3-d]pyrimidin-7-yl]-3,4-dihydroxy-tetrahydro-furan-2-yl]methoxy-methylphosphonic acid] |
| 0.1 to 1 | 0.1 to 1 | O=P(O)(O)COC[C@H]1O[C@@H](n2ccc3c(NC4CCCC4)nc(Oc4cccnc4)nc32)[C@H](O)[C@@H]1O [Compound 248, [(2R,3S,4R,5R)-5-[4-(cyclopentylamino)-2-(3-pyridyloxy)pyrrolo-[2,3-d]pyrimidin-7-yl]-3,4-dihydroxy-tetra-hydrofuran-2-yl]meth-oxymethylphosphonic acid] |
| 0.01 to 0.1 | 0.01 to 0.1 | O=P(O)(O)COC[C@H]1O[C@@H](n2ccc3c(NC4CCCC4)nc(O)nc32)[C@H](O)[C@@H]1O [Compound 250, [(2R,3S,4R,5R)-5-[4-(cyclopentylamino)-2-hydroxy-pyrrolo[2,3-d]pyrimidin-7-yl]-3,4-dihydroxy-tetrahydro-furan-2-yl]methoxy-methylphosphonic acid] |
| < 0.01 | < 0.01 | COCC#Cc1nc(NC2CCCC2)c2ccn([C@@H]3O[C@H](COCP(=O)(O)O)[C@@H](O)[C@H]3O)c2n1 [Compound 252, [(2R,3S,4R,5R)-5-[4-(cyclopentylamino)-2-(3-methoxyprop-1-ynyl)pyrrolo[2,3-d]-pyrimidin-7-yl]-3,4-dihydroxy-tetrahydro-furan-2-yl]methoxy-methylphosphonic acid] |
| < 0.01 | < 0.01 | CC(C)C#Cc1nc(NC2CCCC2)c2ccn([C@@H]3O[C@H](COCP(=O)(O)O)[C@@H](O)[C@H]3O)c2n1 [Compound 253, [(2R,3S,4R,5R)-5-[4-(cyclopentylamino)-2-(3-methylbut-1-ynyl)pyrrolo[2,3-d]-pyrimidin-7-yl]-3,4-dihydroxy-tetrahydro-furan-2-yl]methoxy-methylphosphonic acid] |
| 0.1 to 1 | 0.1 to 1 | CC(C)(C)C#Cc1nc(NC2CCCC2)c2ccn([C@@H]3O[C@H](COCP(=O)(O)O)[C@@H](O)[C@H]3O)c2n1 [Compound 254, [(2R,3S,4R,5R)-5-[4-(cyclopentylamino)-2-(3,3-dimethylbut-1-ynyl)pyrrolo[2,3-d]-pyrimidin-7-yl]-3,4-dihydroxy-tetrahydro-furan-2-yl]methoxy-methylphosphonic acid] |
| < 0.01 | < 0.01 | O=P(O)(O)COC[C@H]1O[C@@H](n2ccc3c(NC4CCCC4)nc(C#CC4CC4)nc32)[C@H](O)[C@@H]1O [Compound 255, [(2R,3S,4R,5R)-5-[4-(cyclopentylamino)-2-(2-cyclopropyl-ethynyl)pyrrolo[2,3-d]-pyrimidin-7-yl]-3,4-dihydroxy-tetrahydro-furan-2-yl]methoxy-methylphosphonic acid] |
| < 0.01 | < 0.01 | C[C@H](O)C#Cc1nc(NC2CCCC2)c2ccn([C@@H]3O[C@H](COCP(=O)(O)O)[C@@H](O)[C@H]3O)c2n1 [Compound 256, [(2R,3S,4R,5R)-5-[4-(cyclopentylamino)-2-[(3S)-3-hydroxybut-1-ynyl]pyrrolo[2,3-d]-pyrimidin-7-yl]-3,4-dihydroxy-tetrahydro-furan-2-yl]methoxy-methylphosphonic acid] |
| < 0.01 | < 0.01 | O=P(O)(O)COC[C@H]1O[C@@H](n2ccc3c(NC4CCCC4)nc(OCCO)nc32)[C@H](O)[C@@H]1O [Compound 257, ((((2R,3S,4R,5R)-5-(4-(cyclopentylamino)-2-(2-hydroxyethoxy)-7H-pyrrolo[2,3-d]pyrimidin-7-yl)-3,4-dihydroxytetrahydrofuran-2-yl)methoxy)methyl)phosphonic acid] |
| 0.01 to 0.1 | < 0.01 | O=P(O)(O)COC[C@H]1O[C@@H](n2ccc3c(NC4CCCC4)nc(OCCCO)nc32)[C@H](O)[C@@H]1O [Compound 258, [(2R,3S,4R,5R)-5-[4-(cyclopentylamino)-2-(3-hydroxypropoxy)-pyrrolo[2,3-d]pyrimidin-7-yl]-3,4-dihydroxy-tetrahydrofuran-2-yl]-methoxymethylphos-phonic acid] |
| 0.01 to 0.1 | 0.01 to 0.1 | COCCOc1nc(NC2CCCC2)c2ccn([C@@H]3O[C@H](COCP(=O)(O)O)[C@@H](O)[C@H]3O)c2n1 [Compound 260, [(2R,3S,4R,5R)-5-[4-(cyclopentylamino)-2-(2-methoxyethoxy)-pyrrolo[2,3-d]-pyrimidin-7-yl]-3,4-dihydroxy-tetrahydro-furan-2-yl]methoxy-methylphosphonic acid] |
| < 0.01 | < 0.01 | C[C@@H](O)COc1nc(NC2CCCC2)c2ccn([C@@H]3O[C@H](COCP(=O)(O)O)[C@@H](O)[C@H]3O)c2n1 [Compound 261, [(2R,3S,4R,5R)-5-[4-(cyclopentylamino)-2-[(2R)-2-hydroxy-propoxy]pyrrolo[2,3-d]pyrimidin-7-yl]-3,4-dihydroxy-tetrahydro-furan-2-yl]methoxy-methylphosphonic acid] |
| 0.01 to 0.1 | 0.01 to 0.1 | CCOc1nc(NC2CCCC2)c2ccn([C@@H]3O[C@H](COCP(=O)(O)O)[C@@H](O)[C@H]3O)c2n1 [Compound 262, [(2R,3S,4R,5R)-5-[4-(cyclopentylamino)-2-ethoxy-pyrrolo[2,3-d]-pyrimidin-7-yl]-3,4-dihydroxy-tetrahydro-furan-2-yl]methoxy-methylphosphonic acid] |
| < 0.01 | < 0.01 | CC(O)COc1nc(NC2CCCC2)c2ccn([C@@H]3O[C@H](COCP(=O)(O)O)[C@@H](O)[C@H]3O)c2n1 (stereo partly drawn) [Compound 263, [(2R,3S,4R,5R)-5-[4-(cyclopentylamino)-2-(2-hydroxypropoxy)-pyrrolo[2,3-d]pyrimidin-7-yl]-3,4-dihydroxy-tetrahydrofuran-2-yl]-methoxymethylphos-phonic acid] |
| 0.01 to 0.1 | 0.01 to 0.1 | C[C@H](Nc1nc(Cl)nc2c1cnn2[C@@H]1O[C@H](COCP(=O)(O)O)[C@@H](O)[C@H]1O)c1ccc(F)cc1 [Compound 265, [(2R,3S,4R,5R)-5-[6-chloro-4-[[(1S)-1-(4-fluorophenyl)ethyl]-amino]pyrazolo[3,4-d]-pyrimidin-1-yl]-3,4-dihydroxy-tetrahydro-furan-2-yl]methoxy-methylphosphonic acid] |
| < 0.01 | < 0.01 | CC#Cc1nc(NC2CCCC2)c2ccn([C@@H]3O[C@H](COCP(=O)(O)O)[C@@H](O)[C@H]3O)c2n1 [Compound 266, [(2R,3S,4R,5R)-5-[4-(cyclopentylamino)-2-prop-1-ynyl-pyrrolo-[2,3-d]pyrimidin-7-yl]-3,4-dihydroxy-tetrahydrofuran-2-yl]-methoxymethylphos-phonic acid] |
| < 0.01 | < 0.01 | C[C@@H](O)C#Cc1nc(NC2CCCC2)c2ccn([C@@H]3O[C@H](COCP(=O)(O)O)[C@@H](O)[C@H]3O)c2n1 [Compound 267, [(2R,3S,4R,5R)-5-[4-(cyclopentylamino)-2-[(3R)-3-hydroxybut-1-ynyl]pyrrolo[2,3-d]-pyrimidin-7-yl]-3,4-dihydroxy-tetrahydro-furan-2-yl]methoxy-methylphosphonic acid] |
